In US12702676B2, “Fosfomycin dosing regimens” (priority 2017, dated 2026):
Converted amounts (≈) assume the structure as drawn. Read-outs that look alike come from different tables or passages of the source.

Assays:
Enterobacteriaceae [1] = experiment: Non-clinical total-drug % T>RIC targets for efficacy
Description: Emphasis was placed on the assessment of PK-PD target attainment results for AUC:MIC ratio and % T>RIC targets associated with net bacterial stasis.

[2] = Population PK analysis of ZTI-01, pooled Phase 1 healthy subjects and Phase 2/3 cUTI/AP patients; assay type: in vivo, human; details: for Baseline CLcr50 / Hill coefficient: CL model
Description: Methods: Two clinical studies have been conducted as part of the development of ZTI-01: a Phase 1 study in healthy subjects (ZTI-01-NIH13-0064) and a Phase 2/3 study in hospitalized patients with complicated urinary tract infections (ZTI-01-200). A PPK model, originally developed using Phase 1 data and an empirical relationship between FOS clearance (CLt) and creatinine clearance (CLcr) [Microbe 2017 Abstr. P1134], was refined using pooled data from healthy subjects and patients with cUTI, including acute pyelonephritis.
The PPK model was developed in NONMEM 7.2. In the Phase 1 study, 28 healthy subjects who received ZTI-01 as single (1 and 8 g infused over 1 hour) IV doses in crossover fashion provided plasma and urine samples for FOS concentration determination over 24 hours. Patients from the Phase 2/3 study (ZEUS, NCT02753946) received ZTI-01 at 6 g every 8 hours, with dosage adjustment for patients with renal impairment (adjusted for CLcr≤50 mL/min). Blood samples for PK (n=5 per patient) were collected on Day 1 and on either Days 3, 4, or 5. Model development involved refinement of the previous CLt:CLcr relationship using the pooled data and a full covariate analysis to identify other patient descriptors associated with the interindividual variability (IIV) in FOS PK. Model qualification included standard goodness-of-fit metrics and visual predictive check plots.
For the PPK model refinement, previous structural population PK model was fit to the pooled Phase 1 and 2/3 data. Covariate analyses were conducted using forward selection and backward elimination. The final model was qualified using visual predictive checks and non-parametric bootstrap procedures. Individual, post-hoc fosfomycin exposures were calculated for each patient using predicted plasma fosfomycin concentration-time data for the first 48 hours of therapy.

[3] = Pharmacokinetics in specific populations (hemodialysis, hepatic, demographics); assay type: in vivo, human
[4] = test system: Acinetobacter baumannii-calcoaceticus complex; experiment: Case treated with the dosing regimen of the invention; assay type: in vivo; details: one case
Description: In addition to the above list, it was also observed that the dosing regimen of the present invention provided beneficial results for two uncommon and rarely treated strains. In one case, the dosing regimen of the present invention was used to administer appropriate dosages of fosfomycin, resulting in the eradication of the often resistant, Gram negative Acinetobacter baumannii-calcoaceticus complex.

[5] = test system: Raoultella ornithinolytica; experiment: Case treated with the dosing scheme of the invention; assay type: in vivo; details: one case
Enterobacteriaceae [6] = details: cited from earlier work; for Total-drug AUC:MIC ratio target: Enterobacteriaceae; for Median total-drug AUC:MIC ratio target: neutropenic murine-thigh infection model (Lepak et al.)
[7] = test system: Enterobacteriaceae isolates; details: 1,021 Enterobacteriaceae isolates collected from US medical centers; cited from earlier work
[8] = test system: acute pyelonephritis pathogens; details: Ode et al. study; dosing regimen 8 g bid; cited from earlier work
[9] = 1-log10 CFU reduction from baseline
[10] = final population PK model estimate

SMILES: C[C@@H]1O[C@@H]1P(=O)(O)O [fosfomycin]
- Total-drug % T > RIC target (Enterobacteriaceae [1]; [9]): 20.9%
- Total-drug % T > RIC target (Enterobacteriaceae [1]; 2-log10 CFU reduction from baseline): 32.8%
- Total-drug % T > RIC target (Enterobacteriaceae [1]; Net bacterial stasis): 11.9%
- Baseline CLcr50 ([2]; bootstrap mean (N = 200)): 66.3 mL/min/1.73 m^2
- Hill coefficient ([2]; bootstrap mean (N = 200)): 2.6
- Baseline CLcr50 ([2]; bootstrap median (N = 200)): 65.6 mL/min/1.73 m^2
- Hill coefficient ([2]; bootstrap median (N = 200)): 2.59
- Baseline CLcr50 [2, 10]: 65 mL/min/1.73 m^2
- Hill coefficient [2, 10]: 2.56
- CLd1 Coefficient ([2]; bootstrap mean (N = 200)): 4.36 L/h
- CLd1 Proportional increase for AP and cUTI patients ([2]; bootstrap mean (N = 200)): 1.28
- CLd2 Coefficient ([2]; bootstrap mean (N = 200)): 0.351 L/h
- CLe maximum ([2]; bootstrap mean (N = 200)): 9.02 L/h
- Covariance between CL and Vc ([2]; bootstrap mean (N = 200)): 0.0707
- Covariance between CL and Vp1 ([2]; bootstrap mean (N = 200)): 0.134
- Covariance between CLd1 and Vp1 ([2]; bootstrap mean (N = 200)): 0.173
- Plasma Residual variability (σ^2) CCV component ([2]; bootstrap mean (N = 200)): 0.0196
- Urine Residual variability (σ^2) CCV component ([2]; bootstrap mean (N = 200)): 0.0793
- Vc Coefficient ([2]; bootstrap mean (N = 200)): 17.7 L
- Vc-BSA power ([2]; bootstrap mean (N = 200)): 1.72
- Vp1-BSA power ([2]; bootstrap mean (N = 200)): 2.73
- Vp1 Coefficient ([2]; bootstrap mean (N = 200)): 6.11 L
- Vp1 Proportional increase for AP and cUTI patients ([2]; bootstrap mean (N = 200)): 0.721
- Vp2 Coefficient ([2]; bootstrap mean (N = 200)): 1.74 L
- ω^2 for Vc ([2]; bootstrap mean (N = 200)): 0.174
- ω^2 for Vp1 ([2]; bootstrap mean (N = 200)): 0.516
- ω^2 tor CLd1 ([2]; bootstrap mean (N = 200)): 0.203
- CLd1 Coefficient ([2]; bootstrap median (N = 200)): 4.2 L/h
- CLd1 Proportional increase for AP and cUTI patients ([2]; bootstrap median (N = 200)): 1.15
- CLd2 Coefficient ([2]; bootstrap median (N = 200)): 0.346 L/h
- CLe maximum ([2]; bootstrap median (N = 200)): 8.87 L/h
- Covariance between CL and Vc ([2]; bootstrap median (N = 200)): 0.0704
- Covariance between CL and Vp1 ([2]; bootstrap median (N = 200)): 0.131
- Covariance between CLd1 and Vp1 ([2]; bootstrap median (N = 200)): 0.166
- Plasma Residual variability (σ^2) CCV component ([2]; bootstrap median (N = 200)): 0.0194
- Urine Residual variability (σ^2) CCV component ([2]; bootstrap median (N = 200)): 0.079
- Vc Coefficient ([2]; bootstrap median (N = 200)): 17.7 L
- Vc-BSA power ([2]; bootstrap median (N = 200)): 1.7
- Vp1-BSA power ([2]; bootstrap median (N = 200)): 2.73
- Vp1 Coefficient ([2]; bootstrap median (N = 200)): 6.03 L
- Vp1 Proportional increase for AP and cUTI patients ([2]; bootstrap median (N = 200)): 0.706
- Vp2 Coefficient ([2]; bootstrap median (N = 200)): 1.72 L
- ω^2 for Vc ([2]; bootstrap median (N = 200)): 0.172
- ω^2 for Vp1 ([2]; bootstrap median (N = 200)): 0.508
- ω^2 tor CLd1 ([2]; bootstrap median (N = 200)): 0.199
- CLd1 Coefficient [2, 10]: 4.15 L/h
- CLd1 Proportional increase for AP and cUTI patients [2, 10]: 1.24
- CLd2 Coefficient [2, 10]: 0.349 L/h
- CLe maximum [2, 10]: 8.87 L/h
- Covariance between CL and Vc [2, 10]: 0.07213
- Covariance between CL and Vp1 [2, 10]: 0.1296
- Covariance between CLd1 and Vp1 [2, 10]: 0.1853
- Plasma Residual variability (σ^2) CCV component [2, 10]: 0.0195
- Urine Residual variability (σ^2) CCV component [2, 10]: 0.0795
- Vc Coefficient [2, 10]: 17.6 L
- Vc-BSA power [2, 10]: 1.76
- Vp1-BSA power [2, 10]: 2.72
- Vp1 Coefficient [2, 10]: 5.99 L
- Vp1 Proportional increase for AP and cUTI patients [2, 10]: 0.729
- Vp2 Coefficient [2, 10]: 1.73 L
- ω^2 for Vc [2, 10]: 0.175
- ω^2 for Vp1 [2, 10]: 0.502
- ω^2 tor CLd1 [2, 10]: 0.215
- Cmin ([2]; geometric mean, infected Phase 2/3 patients (n = 214), ZTI-01-200, population PK model fit): 30.0 µg/mL
- Cmax ([2]; human, in vivo, 6 g, geometric mean, infected Phase 2/3 patients (n = 214), ZTI-01-200, population PK model fit): 364 µg/mL
- clearance ([2]; human, in vivo, 6 g, geometric mean, infected Phase 2/3 patients (n = 214), ZTI-01-200, population PK model fit, read-out: CL (converted)): 99.7 mL/min
- Vd ([2]; human, in vivo, 6 g, geometric mean, infected Phase 2/3 patients (n = 214), ZTI-01-200, population PK model fit, read-out: VSS): 30.9 L
- half-life ([2]; human, in vivo, 6 g, geometric mean, infected Phase 2/3 patients (n = 214), ZTI-01-200, population PK model fit, read-out: t1/2, α (converted)): 0.402 h
- half-life ([2]; human, in vivo, 6 g, geometric mean, infected Phase 2/3 patients (n = 214), ZTI-01-200, population PK model fit, read-out: t1/2, β (converted)): 2.67 h
- half-life ([2]; human, in vivo, 6 g, geometric mean, infected Phase 2/3 patients (n = 214), ZTI-01-200, population PK model fit, read-out: t1/2, γ (converted)): 4.99 h
- AUC(0-t) ([2]; human, in vivo, 6 g, geometric mean, infected Phase 2/3 patients (n = 214), ZTI-01-200, doses by baseline renal function, population PK model fit, read-out: AUC0-24): 2490 µg·h/mL
- clearance ([2]; human, in vivo, bootstrap mean (N = 200), read-out: Non-renal CL (converted)): 27 mL/min
- clearance ([2]; human, in vivo, bootstrap median (N = 200), read-out: Non-renal CL (converted)): 27.2 mL/min
- clearance ([2]; human, in vivo, final population PK model estimate, read-out: Non-renal CL (converted)): 26.8 mL/min
- fosfomycin dose removed by hemodialysis ([3]; administered prior to hemodialysis in patients on periodic or chronic hemodialysis): 61-79%
- differences in pharmacokinetics based on sex, body weight/body surface area, race/ethnicity or age ([3]; age 18 to 89 years, adjusted for renal function): No clinically significant differences
- metabolism through the liver ([3]; in vivo): not metabolized through the liver
- outcome against Acinetobacter baumannii-calcoaceticus complex [4]: eradication
- outcome against Raoultella ornithinolytica [5]: successfully eradicated
- Total-drug AUC:MIC ratio target (Enterobacteriaceae [6]; [9]): 41.6
- Median total-drug AUC:MIC ratio target (Enterobacteriaceae [6]; 1 log10 CFU reduction from baseline): 41.6
- Total-drug AUC:MIC ratio target (Enterobacteriaceae [6]; Net bacterial stasis): 19.1
- Median total-drug AUC:MIC ratio target (Enterobacteriaceae [6]; Net bacterial stasis): 19.1
- MIC50 [7]: 4 µg/mL (≈ 29 µM)
- MIC90 [7]: 16 µg/mL (≈ 116 µM)
- effective (patients with AP) [8]: 44%
